# pIC50: −log10 of the molar value.
# Biological target: T1, recombinant His-tagged cytoplasmic domains of TRKA receptor (NTRK1, PV3144, aa 441-796) (Homo sapiens, UniProt P04629)
# T1 construct: aa 441-796; His; purchased Invitrogen PV3144
# Test: Isolated TRK enzyme assay (HTRF KinEASE-TK, PV3144 TrkA enzyme assay)
# Assay type: biochemical
# Conditions: 4 nM enzyme, 40 uM ATP, 35 min, arithmetic mean where more than one reading
# In short: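 Enzyme and ATP were preincubated with compound for 20 min at room temperature in buffer with 10 mM MgCl and 2 mM DTT. TK-substrate-Biotin was then added (1 uM final) and the reaction run for an enzyme-specific optimized time. Phosphorylation was read by HTRF, and IC50 values came from sigmoid fits of percent inhibition normalized to plate controls, averaged over replicate readings.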
# T1 sequence (P04629 441-796): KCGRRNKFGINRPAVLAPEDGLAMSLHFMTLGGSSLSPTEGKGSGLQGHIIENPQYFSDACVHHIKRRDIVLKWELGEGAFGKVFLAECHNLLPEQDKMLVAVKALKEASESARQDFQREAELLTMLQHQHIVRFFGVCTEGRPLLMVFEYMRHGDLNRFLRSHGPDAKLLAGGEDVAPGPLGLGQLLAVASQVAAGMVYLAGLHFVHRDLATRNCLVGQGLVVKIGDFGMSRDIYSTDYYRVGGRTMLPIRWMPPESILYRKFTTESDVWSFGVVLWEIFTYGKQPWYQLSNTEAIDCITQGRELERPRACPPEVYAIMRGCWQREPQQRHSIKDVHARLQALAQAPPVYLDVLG
row,pIC50,SMILES
1,8.28,"Cn1cnc(-c2ccc(O[C@@H]3[C@@H]4CC[C@H]3CN(C(=O)Cc3ccc(OC(F)(F)F)cc3)C4)c(C(N)=O)c2)c1 [Example 47, 5-(1-methyl-1H-imidazol-4-yl)-2-(((1R,5S,8s)-3-(2-(4-(trifluoromethoxy)phenyl)acetyl)-3-azabicyclo[3.2.1]octan-8-yl)oxy)benzamide]"
2,8.15,"NCCn1cc(-c2ccc(OC3CCN(C(=O)Cc4ccc(OC(F)(F)F)cc4)CC3)c(C(N)=O)c2)cn1 [Example 138, 5-[1-(2-aminoethyl)-1H-pyrazol-4-yl]-2-[(1-{[4-(trifluoromethoxy)phenyl]acetyl}piperidin-4-yl)oxy]benzamide]"
3,8.40,"NC(=O)c1cc(-c2ccc(N)nc2)ccc1OC1CCN(C(=O)Cc2ccc(OC(F)(F)F)cc2)CC1 [Example 104, 5-(6-aminopyridin-3-yl)-2-[(1-{[4-(trifluoromethoxy)phenyl]acetyl}piperidin-4-yl)oxy]benzamide]"
4,8.11,"Cc1nc[nH]c1-c1ccc(OC2CCN(C(=O)Cc3ccc(OC(F)(F)F)cc3)CC2)c(C(N)=O)c1 [Example 99, 5-(4-methyl-1H-imidazol-5-yl)-2-[(1-{[4-(trifluoromethoxy)phenyl]acetyl}piperidin-4-yl)oxy]benzamide]"
5,8.21,"CC1CC(Oc2ccc(-c3cn(C)cn3)cc2C(N)=O)CCN1C(=O)Cc1ccc(OC(F)(F)F)cc1 (racemic) [Example 51, Racemic 2-((2-methyl-1-(2-(4-(trifluoromethoxy)phenyl)acetyl)piperidin-4-yl)oxy)-5-(1-methyl-1H-imidazol-4-yl)benzamide]"
6,8.14,"CC(C)(O)Cn1cc(-c2cnc(O[C@@H]3CCN(C(=O)Cc4ccc(OC5CC5)cn4)C[C@@H]3F)c(C(N)=O)c2)cn1 [Example 32, 2-{[(3S,4R)-1-{[5-(cyclopropyloxy)pyridin-2-yl]acetyl}-3-fluoropiperidin-4-yl]oxy}-5-[1-(2-hydroxy-2-methylpropyl)-1H-pyrazol-4-yl]pyridine-3-carboxamide]"
7,7.37,"NC(=O)c1cc(N2CCCC2)ncc1OC1CCN(C(=O)Cc2ccc(OC(F)(F)F)cc2)CC1 [Example 54, 2-(pyrrolidin-1-yl)-5-((1-(2-(4-(trifluoromethoxy)phenyl)acetyl)piperidin-4-yl)oxy)isonicotinamide]"
8,7.74,"Cn1cnc(-c2ccc(O[C@H]3[C@@H]4CO[C@H]3CN(C(=O)Cc3ccc(OC(F)(F)F)cc3)C4)c(C(N)=O)c2)c1 [Example 158, 5-(1-methyl-1H-imidazol-4-yl)-2-{[(1S,5S,8S)-3-{[4-(trifluoromethoxy)phenyl]acetyl}-6-oxa-3-azabicyclo[3.2.1]oct-8-yl]oxy}benzamide]"
9,7.71,"CCc1ccc(CC(=O)N2CCC(Oc3ccc(-c4cnn(C)c4)cc3C(N)=O)CC2)cc1 [Example 153, 2-({1-[(4-ethylphenyl)acetyl]piperidin-4-yl}oxy)-5-(1-methyl-1H-pyrazol-4-yl)benzamide]"
10,8.28,"NC(=O)c1cc(-c2cccc(CO)c2)ccc1OC1CCN(C(=O)Cc2ccc(OC(F)(F)F)cc2)CC1 [Example 106, 3′-(hydroxymethyl)-4-[(1-{[4-(trifluoromethoxy)phenyl]acetyl}piperidin-4-yl)oxy]biphenyl-3-carboxamide]"
11,7.88,"Cc1nc[nH]c1-c1cnc(OC2CCN(C(=O)Cc3ccc(OC(F)(F)F)cc3)CC2)c(C(N)=O)c1 [Example 179, 5-(4-methyl-1H-imidazol-5-yl)-2-[(1-{[4-(trifluoromethoxy)phenyl]acetyl}piperidin-4-yl)oxy]pyridine-3-carboxamide]"
12,7.98,"NC(=O)c1cc(-c2cn[nH]c2)ncc1O[C@H]1CCN(C(=O)Cc2ccc(OC(F)(F)F)cc2)C[C@@H]1F [Example 86, 5-{[(3S,4S)-3-fluoro-1-{[4-(trifluoromethoxy)phenyl]acetyl}piperidin-4-yl]oxy}-2-(1H-pyrazol-4-yl)pyridine-4-carboxamide]"
13,8.00,"NC(=O)c1cc(-c2cc[nH]n2)cnc1OC1CCN(C(=O)Cc2ccc(SC(F)(F)F)cc2)CC1 [Example 60, 5-(1H-pyrazol-3-yl)-2-{[1-({4-[(trifluoromethyl)sulfanyl]phenyl}acetyl)piperidin-4-yl]oxy}pyridine-3-carboxamide]"
14,8.17,"NC(=O)c1cc(-c2cn[nH]c2)ncc1O[C@@H]1CCN(C(=O)Cc2ccc(OC3CC3)cn2)C[C@@H]1F [Example 87, 5-{[(3S,4R)-1-{[5-(cyclopropyloxy)pyridin-2-yl]acetyl}-3-fluoropiperidin-4-yl]oxy}-2-(1H-pyrazol-4-yl)pyridine-4-carboxamide]"
15,8.66,"Cn1cnc(-c2ccc(O[C@H]3[C@@H]4CC[C@H]3CN(C(=O)Cc3ccc(OC(F)(F)F)cc3)C4)c(C(N)=O)c2)c1 [Example 46, 5-(1-methyl-1H-imidazol-4-yl)-2-(((1R,5S,8r)-3-(2-(4-(trifluoromethoxy)phenyl)acetyl)-3-azabicyclo[3.2.1]octan-8-yl)oxy)benzamide]"
16,8.66,"NC(=O)c1cc(-c2cnn(C3CS(=O)(=O)C3)c2)ccc1OC1CCN(C(=O)Cc2ccc(OC(F)(F)F)cc2)CC1 [Example 13, 5-[1-(1,1-dioxidothietan-3-yl)-1H-pyrazol-4-yl]-2-[(1-{[4-(trifluoromethoxy)phenyl]acetyl}piperidin-4-yl)oxy]benzamide]"
